8 molecules from US20220273659A1, “HETEROCYCLIC COMPOUNDS AS KINASE INHIBITORS” (NUVATION BIO INC., priority 2019, published 2022) can be followed below.

Assay [1] concerns the target T1, CDK1 (cyclin B) (Homo sapiens, UniProt P06493).
T1 construct: purchased Invitrogen Life Technologies (assay service)
As to the kind of experiment: Z'-LYTE kinase assay. The format is biochemical. The method, then:
The plates were shaken for 30 seconds, and incubated for 60 minutes at room temperature. […] The plates were read on fluorescence plate reader with Dual emission at 445 nm and 520 nm.
The following equations were used for Z′-LYTE™ Screening Assay Data Analysis.

In assay [2] the test system is DU4475 breast carcinoma cells. Nature of the assay: Cancer cell proliferation assay, single agent (cell viability). The conditions noted are these: Homo sapiens, DU-4475; Table 4; Rb negative; treatment 144 Hr with medium change at 72 Hr; Cell Titer-Glo or resazurin. The format is cell-based. The procedure, abridged:
(§1)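 Cells seeded day 1, then exposed on day 2 to 7–9 compound concentrations (e.g. 1.1 nM–10 μM); BT-549 for 24 h, MCF-7 and DU4475 for 144 h with medium change at 72 h. Viability by CellTiter-Glo or resazurin; IC50 from variable-slope sigmoidal fit.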
In general terms: In ATP-based viability assays light output follows the ATP content of the culture.

The target in assay [3] is T2, CDK2 (cyclin A) (Homo sapiens, UniProt P24941).
T2 construct: purchased Invitrogen Life Technologies (assay service)
As to the kind of experiment: Z'-LYTE kinase assay. The assay is classed as biochemical. On the procedure: IC50 values of compounds against CDK2 (cyclin A) were determined by Z′-LYTE™ These screening assays were performed at Invitrogen Life Technologies (Grand Island, N.Y.) on a low volume NBS, black 384-well plate (#4514, Corning). 0.1 μL of 100×test compound in 100% DMSO (at specific solutions) was mixed with 2.4 μL of Kinase Buffer (50 mM HEPES pH 7.5, 0.01% BRIJ-35, 10 mM MgCl2, 1 mM EGTA), 5 μL of 2× Kinase (1.22-10.3 ng CDK2/cyclin A)/Peptide (2 μM Ser/Thr 12), and 2.5 μL of 4×ATP solution (31 μM). The plates were shaken for 30 seconds, and incubated for 60 minutes at room temperature. Development Reagent Solution (5 μL of 1:1024 dilution) was added to the plates followed with another 30-second plate shake and the plates were further incubated at room temperature for one hour. The plates were read on fluorescence plate reader with Dual emission at 445 nm and 520 nm.
The following equations were used for Z′-LYTE™ Screening Assay Data Analysis. Percent inhibition (100-% activity) was fitted to the “four-parameter logistic model” in XLfit for determination of IC50 values.

Assay [4] addresses T3, FMS kinase (Homo sapiens, UniProt P07333).
T3 construct: purchased Invitrogen (Life Technologies)
Nature of the assay: LanthaScreen Eu Kinase Binding Assay (ATP, fluorescent-PolyGT substrate). The format is biochemical. The procedure, abridged:
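Kinase (1.25 nM) preincubated 10 min with 3-fold compound dilutions, then ATP 10 μM and fluorescent PolyGT substrate 200 nM added for 1 h in the dark at room temperature. Stopped with Tb-antibody (4 nM) and EDTA 20 mM; TR-FRET at 340 nm excitation, 495/520 nm emission; IC50 from four-parameter fit.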
In general terms: Time-resolved FRET reads energy transfer from a long-lived donor to a nearby acceptor.

The target in assay [5] is T4, CDK4 (Homo sapiens, UniProt P11802).
T4 construct: purchased Invitrogen PR8064A
T4 sequence (P11802 whole entry): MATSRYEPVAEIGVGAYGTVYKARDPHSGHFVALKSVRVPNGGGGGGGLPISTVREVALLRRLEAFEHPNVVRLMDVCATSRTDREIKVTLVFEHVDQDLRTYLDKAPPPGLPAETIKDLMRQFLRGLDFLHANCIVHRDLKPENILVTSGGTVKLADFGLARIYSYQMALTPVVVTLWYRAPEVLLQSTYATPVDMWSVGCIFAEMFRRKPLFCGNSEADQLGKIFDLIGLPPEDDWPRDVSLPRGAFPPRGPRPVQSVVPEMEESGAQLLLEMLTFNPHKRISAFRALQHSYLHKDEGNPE
T4 sequence (P24385 whole entry partner): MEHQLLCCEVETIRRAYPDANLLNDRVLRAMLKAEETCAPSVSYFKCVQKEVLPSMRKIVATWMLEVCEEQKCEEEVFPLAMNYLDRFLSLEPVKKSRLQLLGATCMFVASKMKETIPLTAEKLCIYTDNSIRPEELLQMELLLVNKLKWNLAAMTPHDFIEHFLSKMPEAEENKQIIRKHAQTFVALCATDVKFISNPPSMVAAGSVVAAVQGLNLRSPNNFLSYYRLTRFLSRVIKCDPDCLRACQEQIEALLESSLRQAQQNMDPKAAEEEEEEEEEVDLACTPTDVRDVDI
Nature of the assay: In vitro kinase inhibition IC50, luminescence (ADP Glo), retinoblastoma substrate. The format is biochemical. As to conditions: read-out: CDK4/D1 IC50. The method in brief: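 CDK4 enzyme (5 nM, Invitrogen) was combined with test compound and a mix of retinoblastoma substrate (1 μM) plus ATP (25 μM) in kinase buffer, 30 μL/well in 96-well half area white plates. After 2H at room temperature, ADP Glo reagent stopped the reaction for 45 min, then detection reagent was added and luminescence was read.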

In assay [6] the target is T5, CDK6 (Homo sapiens, UniProt Q00534).
T5 construct: purchased Invitrogen PR8422B
T5 sequence (Q00534 whole entry): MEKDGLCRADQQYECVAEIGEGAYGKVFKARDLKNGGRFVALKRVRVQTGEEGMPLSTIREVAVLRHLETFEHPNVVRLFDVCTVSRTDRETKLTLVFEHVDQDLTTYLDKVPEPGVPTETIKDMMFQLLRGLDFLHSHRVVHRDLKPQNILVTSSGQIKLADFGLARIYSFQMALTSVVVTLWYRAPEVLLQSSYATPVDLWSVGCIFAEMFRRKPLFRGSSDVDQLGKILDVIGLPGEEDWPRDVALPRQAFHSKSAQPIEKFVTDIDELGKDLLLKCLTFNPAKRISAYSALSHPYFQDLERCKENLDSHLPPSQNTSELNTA
T5 sequence (P24385 whole entry partner): as the sequence (P24385 whole entry partner) above
The description is as above. The format is biochemical. The conditions noted are these: read-out: CDK6/D1 IC50. The method in brief: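 Recombinant CDK6 (5 nM) with retinoblastoma substrate (1 μM) and 25 μM ATP, compound at final 0.1–200 nM, incubated 2 h at room temperature. ADP formed detected by ADP-Glo luminescence. IC50 from four-parameter logistic fit of percent inhibition.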

Assay [7] concerns MCF-7 breast adenocarcinoma cells. Nature of the assay: Cancer cell proliferation assay, single agent (cell viability). The assay is classed as cell-based. As to conditions: Homo sapiens, MCF7, Table 4; Rb positive; treatment 144 Hr with medium change at 72 Hr; Cell Titer-Glo or resazurin. The procedure, abridged: as §1

The structures appear in SMILES notation. Read-outs that look alike come from different tables or passages of the source.

T3 sequence (P07333 20-972): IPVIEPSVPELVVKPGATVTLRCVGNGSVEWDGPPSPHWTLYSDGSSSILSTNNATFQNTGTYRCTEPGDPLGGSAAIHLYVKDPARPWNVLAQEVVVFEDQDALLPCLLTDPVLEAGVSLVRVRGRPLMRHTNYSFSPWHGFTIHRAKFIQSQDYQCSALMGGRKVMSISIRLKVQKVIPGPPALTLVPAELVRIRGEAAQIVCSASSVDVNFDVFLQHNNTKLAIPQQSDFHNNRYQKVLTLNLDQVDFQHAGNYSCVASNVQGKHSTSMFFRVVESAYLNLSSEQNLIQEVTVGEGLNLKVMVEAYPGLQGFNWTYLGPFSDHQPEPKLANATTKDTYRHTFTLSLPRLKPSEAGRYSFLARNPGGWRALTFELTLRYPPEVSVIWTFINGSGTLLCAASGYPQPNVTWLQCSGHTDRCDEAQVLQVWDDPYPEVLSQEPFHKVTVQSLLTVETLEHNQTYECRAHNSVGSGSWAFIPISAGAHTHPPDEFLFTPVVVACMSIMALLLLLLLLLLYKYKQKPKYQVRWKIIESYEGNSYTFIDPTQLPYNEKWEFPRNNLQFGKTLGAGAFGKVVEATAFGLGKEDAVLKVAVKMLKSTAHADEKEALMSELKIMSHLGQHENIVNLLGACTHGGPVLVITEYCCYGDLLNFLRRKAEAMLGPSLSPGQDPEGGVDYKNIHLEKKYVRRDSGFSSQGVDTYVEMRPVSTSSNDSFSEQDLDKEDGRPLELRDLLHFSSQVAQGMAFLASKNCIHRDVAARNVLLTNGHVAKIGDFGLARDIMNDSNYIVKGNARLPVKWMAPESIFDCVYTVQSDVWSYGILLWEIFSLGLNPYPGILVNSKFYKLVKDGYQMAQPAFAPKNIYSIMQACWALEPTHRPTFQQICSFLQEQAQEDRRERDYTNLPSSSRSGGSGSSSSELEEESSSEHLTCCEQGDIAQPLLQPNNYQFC
T1 sequence (P06493 whole entry): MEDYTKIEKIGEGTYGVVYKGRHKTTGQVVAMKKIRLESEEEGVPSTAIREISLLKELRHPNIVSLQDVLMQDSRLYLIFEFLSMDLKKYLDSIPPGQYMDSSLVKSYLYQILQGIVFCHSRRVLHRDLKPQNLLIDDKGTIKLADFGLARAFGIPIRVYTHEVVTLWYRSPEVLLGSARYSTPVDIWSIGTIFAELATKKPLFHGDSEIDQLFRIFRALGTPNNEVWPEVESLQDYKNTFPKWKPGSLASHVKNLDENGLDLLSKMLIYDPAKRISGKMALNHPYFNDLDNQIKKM
T1 sequence (P14635 whole entry partner): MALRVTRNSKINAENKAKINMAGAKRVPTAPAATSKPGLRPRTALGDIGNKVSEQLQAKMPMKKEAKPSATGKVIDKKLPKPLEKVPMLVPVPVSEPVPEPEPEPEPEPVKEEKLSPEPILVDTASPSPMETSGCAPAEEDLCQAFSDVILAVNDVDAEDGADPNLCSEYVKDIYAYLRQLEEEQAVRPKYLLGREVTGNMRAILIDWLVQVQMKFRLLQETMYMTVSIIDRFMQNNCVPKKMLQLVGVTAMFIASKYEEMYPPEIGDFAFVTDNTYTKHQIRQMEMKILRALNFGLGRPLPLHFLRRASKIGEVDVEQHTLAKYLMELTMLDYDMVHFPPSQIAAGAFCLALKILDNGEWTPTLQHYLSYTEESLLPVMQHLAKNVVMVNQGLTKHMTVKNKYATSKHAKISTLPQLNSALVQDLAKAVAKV

Turning to `COCCS(=O)(=O)N1CCC(Nc2ncc3cc(C#N)c(=O)n(C4CCCC4)c3n2)CC1` [Compound No. 374, 8-cyclopentyl-2-((1-((2-methoxyethyl)sulfonyl)piperidin-4-yl)amino)-7-oxo-7,8-dihydropyrido[2,3-d]pyrimidine-6-carbonitrile], the IC50 in assay [1] is 667 nM; in assay [2] it was 690 nM; in assay [3], 70 nM; in assay [4] it was 838 nM; in assay [5], 5 nM; in assay [6] it was 6 nM.
As to `N#Cc1cc2cnc(NC3CCN(S(=O)(=O)CCCCCCO)CC3)nc2n(C2CCCC2)c1=O` [Compound No. 378, 8-cyclopentyl-2-((1-((6-hydroxyhexyl)sulfonyl)piperidin-4-yl)amino)-7-oxo-7,8-dihydropyrido[2,3-d]pyrimidine-6-carbonitrile], the IC50 in assay [1] worked out at 325 nM; in assay [2], 670 nM; in assay [3], 30 nM; in assay [4], 402 nM; in assay [5] it was 3 nM; in assay [6], 5 nM.
Take `CS(=O)(=O)N1CCC(Nc2ncc3cc(C#N)c(=O)n(-c4c(F)cccc4F)c3n2)CC1` [Compound No. 376, 8-(2,6-difluorophenyl)-2-((1-(methylsulfonyl)piperidin-4-yl)amino)-7-oxo-7,8-dihydropyrido[2,3-d]pyrimidine-6-carbonitrile]: the IC50 in assay [1] turned out to be 1460 nM; in assay [2], 2440 nM; in assay [3], 170 nM; in assay [4], 402 nM; in assay [5] it was 159 nM; in assay [6], 58 nM.
For the molecule `CS(=O)(=O)N1CC(Nc2ncc3cc(C#N)c(=O)n(C4CCCC4)c3n2)C1` [Compound No. 372, 8-cyclopentyl-2-((1-(methylsulfonyl)azetidin-3-yl)amino)-7-oxo-7,8-dihydropyrido[2,3-d]pyrimidine-6-carbonitrile], the IC50 was more than 4170 nM in assay [1] (read-out: CDK1/B IC50); more than 10000 nM in assay [2]; 705 nM in assay [3]; 1800 nM in assay [4]; more than 200 nM in assay [5]; more than 200 nM in assay [6].
On to `N#Cc1cc2cnc(Nc3ccc4c(c3)CCNC4)nc2n(-c2c(F)cccc2F)c1=O` [Compound No. 375, 8-(2,6-difluorophenyl)-7-oxo-2-((1,2,3,4-tetrahydroisoquinolin-6-yl)amino)-7,8-dihydropyrido[2,3-d]pyrimidine-6-carbonitrile], for which the IC50 turned out to be 1310 nM in assay [1] (read-out: CDK1/B IC50); 615 nM in assay [2]; 303 nM in assay [3]; 13 nM in assay [4]; 132 nM in assay [5]; 147 nM in assay [6].
For `Cn1ccc(S(=O)(=O)N2CCC(Nc3ncc4cc(C#N)c(=O)n(C5CCCC5)c4n3)CC2)n1` [Compound No. 373, 8-cyclopentyl-2-((1-((1-methyl-1H-pyrazol-3-yl)sulfonyl)piperidin-4-yl)amino)-7-oxo-7,8-dihydropyrido[2,3-d]pyrimidine-6-carbonitrile], the IC50 in assay [1] amounted to 912 nM; in assay [2] it was 200 nM; in assay [3] it was 42 nM; in assay [4] it was 1440 nM; in assay [5], 4 nM; in assay [6], 4 nM.
Consider `N#Cc1cc2cnc(Nc3ccc(S(N)(=O)=O)cc3)nc2n(C2CCCC2)c1=O` [Compound No. 377, 4-((6-cyano-8-cyclopentyl-7-oxo-7,8-dihydropyrido[2,3-d]pyrimidin-2-yl)amino)benzenesulfonamide], for which the IC50 in assay [1] (read-out: CDK1/B IC50) worked out at 420 nM; in assay [2] it was 365 nM; in assay [3] it was 25 nM; in assay [4] it was 27 nM; in assay [5], 15 nM; in assay [6], 11 nM.
As for `N#Cc1cc2cnc(NC3CCCC3O)nc2n(C2CCCC2)c1=O` (stereo not drawn) [Compound No. 349, 8-cyclopentyl-2-((2-hydroxycyclopentyl)amino)-7-oxo-7,8-dihydropyrido[2,3-d]pyrimidine-6-carbonitrile], the IC50 came to 735 nM in assay [1] (read-out: CDK1/B IC50); 770 nM in assay [7]; 5660 nM in assay [2]; 475 nM in assay [3]; 29 nM in assay [5]; 62 nM in assay [6].
